From US20130029962A1, “Substituted Heteroaromatic Pyrazole-Containing Carboxamide and Urea Compounds as Vanilloid Receptor Ligands” (Gruenenthal GmbH, priority 2011, published 2013) come the findings set out here.

One may read the Ki as the equilibrium dissociation constant of an inhibitor or competing ligand from its target.

The target of the assay is T1, vanilloid receptor 1 (VR1/TRPV1 receptor) (Homo sapiens, UniProt Q8NER1).
T1 construct: expressed in transfected cells; host or cells: CHO K1
T1 sequence (Q8NER1 whole entry): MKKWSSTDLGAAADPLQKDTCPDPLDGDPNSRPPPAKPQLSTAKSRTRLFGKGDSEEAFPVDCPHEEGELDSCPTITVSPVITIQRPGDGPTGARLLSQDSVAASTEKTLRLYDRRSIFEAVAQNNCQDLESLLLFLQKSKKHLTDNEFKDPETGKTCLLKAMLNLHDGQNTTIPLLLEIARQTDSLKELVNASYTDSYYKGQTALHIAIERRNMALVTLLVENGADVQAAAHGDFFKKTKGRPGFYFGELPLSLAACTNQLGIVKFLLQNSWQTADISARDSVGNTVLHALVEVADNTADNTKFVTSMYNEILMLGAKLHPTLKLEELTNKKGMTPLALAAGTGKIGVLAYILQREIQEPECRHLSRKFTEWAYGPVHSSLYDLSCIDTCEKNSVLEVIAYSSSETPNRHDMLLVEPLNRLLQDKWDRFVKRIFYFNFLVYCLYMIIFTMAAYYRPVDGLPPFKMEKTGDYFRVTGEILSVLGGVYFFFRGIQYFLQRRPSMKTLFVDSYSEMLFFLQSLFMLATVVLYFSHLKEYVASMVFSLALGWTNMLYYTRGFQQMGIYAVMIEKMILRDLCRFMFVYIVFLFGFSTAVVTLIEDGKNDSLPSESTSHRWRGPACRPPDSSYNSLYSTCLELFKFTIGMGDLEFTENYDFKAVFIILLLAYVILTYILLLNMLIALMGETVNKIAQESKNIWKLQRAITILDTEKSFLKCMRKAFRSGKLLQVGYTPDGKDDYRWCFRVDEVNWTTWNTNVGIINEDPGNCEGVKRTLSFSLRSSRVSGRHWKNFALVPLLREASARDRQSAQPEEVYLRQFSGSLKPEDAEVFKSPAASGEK
The experiment in a line: Functional testing on the vanilloid receptor 1 (VR1/TRPV1): FLIPR Ca2+ influx assay, displacement of capsaicin. Particulars: for inhibition at 5 µM: 5 μM compound, read-out: inhibition (as a percentage) at the concentration after @, Cap; for inhibition at 5 µM / mode of action at VR1/TRPV1 (AG, pAG, NE), Cap: capsaicin (Cap), human being; for Ki: capsaicin (Cap) as stimulus, Ki from IC50 by Cheng-Prusoff, read-out: (f) Ki (human being) [nM] Cap. The format is cell-based, human being. Also noted: key to mode of action at VR1/TRPV1 (AG, pAG, NE), Cap: AG=agonist; NE=no effect; pAG=partial agonist. Here is the method:
Furthermore, preference may be given to compounds according to the invention that cause a 50 percent displacement of capsaicin, which is present at a concentration of 100 nM, in a FLIPR assay with CHO K1 cells which were transfected with the human VR1 gene at a concentration of less than 2,000 nM, preferably less than 1,000 nM, particularly preferably less than 300 nM, most particularly preferably less than 100 nM, even more preferably less than 75 nM, additionally preferably less than 50 nM, most preferably less than 10 nM.
In the process, the Ca^2+ influx is quantified in the FLIPR assay with the aid of a Ca^2+-sensitive dye (type Fluo-4, Molecular Probes Europe BV, Leiden, the Netherlands) in a fluorescent imaging plate reader (FLIPR, Molecular Devices, Sunnyvale, USA), as described hereinafter. […]
The number of cells in the suspension is set to 3×10^5 per mL and 150 μL of this suspension are in each case introduced into a recess in the cell culture plates coated as described hereinbefore. In the incubator the plates are left for two to three days at 37° C., 5% by volume of CO2 and 95% relative humidity. Subsequently, the cells are loaded with 2 μM of Fluo-4 and 0.01% by volume of Pluronic F127 (Molecular Probes Europe BV, Leiden, the Netherlands) in HBSS buffer (Hank's buffered saline solution, Gibco Invitrogen GmbH, Karlsruhe, Germany) for 30 min at 37° C., washed 3 times with HBSS buffer and after further incubation for 15 minutes at room temperature used for Ca^2+ measurement in a FLIPR assay. The Ca^2+-dependent fluorescence is in this case measured before and after the addition of substances (λex=488 nm, λem=540 nm). Quantification is carried out by measuring the highest fluorescence intensity (FC, fluorescence counts) over time.
The FLIPR protocol consists of 2 substance additions. First the compounds to be tested (10 μM) are pipetted onto the cells and the Ca^2+ influx is compared with the control (capsaicin 10 μM). This provides the result in % activation based on the Ca^2+ signal after the addition of 10 μM of capsaicin (CP). After 5 minutes' incubation, 100 nM of capsaicin are applied and the Ca^2+ influx is also determined. Desensitising agonists and antagonists lead to suppression of the Ca^2+ influx. The % inhibition is calculated compared to the maximum achievable inhibition with 10 μM of capsazepine. Triple analyses (n=3) are carried out and repeated in at least 3 independent experiments (N=4).
Starting from the percentage displacement caused by different concentrations of the compounds to be tested of general formula I, IC50 inhibitory concentrations which cause a 50-percent displacement of capsaicin were calculated. Ki values for the test substances were obtained by conversion by means of the Cheng-Prusoff equation (Cheng, Prusoff; Biochem. Pharmacol. 22, 3099-3108, 1973).
The affinity of the compounds according to the invention for the vanilloid receptor 1 (VR1/TRPV1 receptor) was determined as described above (pharmacological method I).

`O=C(Cc1ccccn1)NCc1cc(C(F)(F)F)nn1-c1cccc(Cl)c1` [Example 1, N-((1-(3-chlorophenyl)-3-(trifluoromethyl)-1H-pyrazol-5-yl)methyl)-2-(pyridin-2-yl)acetamide]: the inhibition at 5 µM was 31%.

Consider `CC(C(=O)NCc1cc(C(C)(C)C)nn1-c1cccc(Cl)c1)c1ccccn1` (centres unmarked) [Example 2, N-((3-tert-butyl-1-(3-chlorophenyl)-1H-pyrazol-5-yl)methyl)-2-(pyridin-2-yl)propanamide], for which the inhibition at 5 µM came to 89% and the “mode of action at VR1/TRPV1 (AG, pAG, NE), Cap” value (“mode of action at VR1/TRPV1” below) is “AG”.

With `CC(C(=O)NCc1cc(C(F)(F)F)nn1-c1cccc(Cl)c1)c1ccccn1` (centres unmarked) [Example 3, N-((1-(3-chlorophenyl)-3-(trifluoromethyl)-1H-pyrazol-5-yl)methyl)-2-(pyridin-2-yl)propanamide], the inhibition at 5 µM is 35%.

On to `CC(C)(C)c1cc(CNC(=O)Nc2ccccn2)n(-c2cccc(Cl)c2)n1` [Example 4, 1-((3-tert-butyl-1-(3-chlorophenyl)-1H-pyrazol-5-yl)methyl)-3-(pyridin-2-yl)urea], for which the Ki amounted to 47 nM.

Regarding `O=C(NCc1cc(C(F)(F)F)nn1-c1cccc(Cl)c1)Nc1ccccn1` [Example 5, 1-((1-(3-chlorophenyl)-3-(trifluoromethyl)-1H-pyrazol-5-yl)methyl)-3-(pyridin-2-yl)urea], the inhibition at 5 µM worked out at 29%.

Consider `CC(C)(C)c1cc(CNC(=O)Cc2cccnc2)n(-c2cccc(Cl)c2)n1` [Example 6, N-((3-tert-butyl-1-(3-chlorophenyl)-1H-pyrazol-5-yl)methyl)-2-(pyridin-3-yl)acetamide], for which the inhibition at 5 µM is 89% and the “mode of action at VR1/TRPV1” value is listed as “AG”.

`O=C(Cc1cccnc1)NCc1cc(C(F)(F)F)nn1-c1cccc(Cl)c1` [Example 7, N-((1-(3-chlorophenyl)-3-(trifluoromethyl)-1H-pyrazol-5-yl)methyl)-2-(pyridin-3-yl)acetamide]: the inhibition at 5 µM was determined as 51%.

Take `CC(C(=O)NCc1cc(C(F)(F)F)nn1-c1cccc(Cl)c1)c1cccnc1` (centres unmarked) [Example 8, N-((1-(3-chlorophenyl)-3-(trifluoromethyl)-1H-pyrazol-5-yl)methyl)-2-(pyridin-3-yl)propanamide]: the Ki is 13 nM.

`O=C(NCc1cc(C(F)(F)F)nn1-c1cccc(Cl)c1)Nc1cccnc1` [Example 9, 1-((1-(3-chlorophenyl)-3-(trifluoromethyl)-1H-pyrazol-5-yl)methyl)-3-(pyridin-3-yl)urea]: the inhibition at 5 µM worked out at 72% and the “mode of action at VR1/TRPV1” value is “AG”.

For `CC(C)(C)c1cc(CNC(=O)Cc2ccncc2)n(-c2cccc(Cl)c2)n1` [Example 10, N-((3-tert-butyl-1-(3-chlorophenyl)-1H-pyrazol-5-yl)methyl)-2-(pyridin-4-yl)acetamide], the inhibition at 5 µM was 90% and the “mode of action at VR1/TRPV1” value was “AG”.

Regarding `O=C(Cc1ccncc1)NCc1cc(C(F)(F)F)nn1-c1cccc(Cl)c1` [Example 11, N-((1-(3-chlorophenyl)-3-(trifluoromethyl)-1H-pyrazol-5-yl)methyl)-2-(pyridin-4-yl)acetamide], the inhibition at 5 µM was found to be 79% and the “mode of action at VR1/TRPV1” value is given as “AG”.

Consider `O=C(NCc1cc(C(F)(F)F)nn1-c1cccc(Cl)c1)Nc1ccncc1` [Example 12, 1-((1-(3-chlorophenyl)-3-(trifluoromethyl)-1H-pyrazol-5-yl)methyl)-3-(pyridin-4-yl)urea], for which the inhibition at 5 µM turned out to be 85% and the “mode of action at VR1/TRPV1” value is reported as “AG”.

For the compound `O=C(Cc1ccncn1)NCc1cc(C(F)(F)F)nn1-c1cccc(Cl)c1` [Example 13, N-((1-(3-chlorophenyl)-3-(trifluoromethyl)-1H-pyrazol-5-yl)methyl)-2-(pyrimidin-4-yl)acetamide], the inhibition at 5 µM worked out at 30%.

Turning to `CC(C)(C)c1cc(CNC(=O)Cc2cnccn2)n(-c2cccc(Cl)c2)n1` [Example 14, 1N-((3-tert-butyl-1-(3-chlorophenyl)-1H-pyrazol-5-yl)methyl)-2-(pyrazin-2-yl)acetamide], the “mode of action at VR1/TRPV1” value is on record as “pAG”.

As for `O=C(NCc1cc(C(F)(F)F)nn1-c1cccc(Cl)c1)Nc1ccnnc1` [Example 15, 1-((1-(3-chlorophenyl)-3-(trifluoromethyl)-1H-pyrazol-5-yl)methyl)-3-(pyridazin-4-yl)urea], the “mode of action at VR1/TRPV1” value is on record as “AG”.

Consider `O=C(Cc1cncnc1)NCc1cc(C(F)(F)F)nn1-c1cccc(Cl)c1` [Example 16, N-((1-(3-chlorophenyl)-3-(trifluoromethyl)-1H-pyrazol-5-yl)methyl)-2-(pyrimidin-5-yl)acetamide], for which the Ki stood at 77 nM.

On to `O=C(Cc1ccc(Cl)nc1)NCc1cc(C(F)(F)F)nn1-c1cccc(Cl)c1` [Example 17, N-((1-(3-chlorophenyl)-3-(trifluoromethyl)-1H-pyrazol-5-yl)methyl)-2-(6-chloropyridin-3-yl)acetamide], for which the Ki is 29 nM.

Turning to `O=C(NCc1cc(C(F)(F)F)nn1-c1cccc(Cl)c1)Nc1cncc(F)c1` [Example 18, 1-((1-(3-chlorophenyl)-3-(trifluoromethyl)-1H-pyrazol-5-yl)methyl)-3-(5-fluoropyridin-3-yl)urea], the Ki came out at 39 nM.

Take `Cc1ncc(NC(=O)NCc2cc(C(F)(F)F)nn2-c2cccc(Cl)c2)cn1` [Example 19, 1-((1-(3-chlorophenyl)-3-(trifluoromethyl)-1H-pyrazol-5-yl)methyl)-3-(2-methylpyrimidin-5-yl)urea]: the inhibition at 5 µM amounted to 45%.

Regarding `CS(=O)(=O)CCc1ccc(NC(=O)NCc2cc(C(F)(F)F)nn2-c2cccc(Cl)c2)cn1` [Example 21, 1-((1-(3-chlorophenyl)-3-(trifluoromethyl)-1H-pyrazol-5-yl)methyl)-3-(6-(2-(methylsulfonyl)ethyl)pyridin-3-yl)urea], the Ki stood at 43 nM.

Consider `CC(C)(C)c1cc(CNC(=O)Nc2cnc(CCS(C)(=O)=O)c(F)c2)n(-c2cccc(Cl)c2)n1` [Example 22, 1-((3-tert-butyl-1-(3-chlorophenyl)-1H-pyrazol-5-yl)methyl)-3-(5-fluoro-6-(2-(methylsulfonyl)ethyl)pyridin-3-yl)urea], for which the Ki came to 28 nM.

On to `CS(=O)(=O)CCc1ncc(NC(=O)NCc2cc(C(F)(F)F)nn2-c2cccc(Cl)c2)cc1F` [Example 23, 1-((1-(3-chlorophenyl)-3-(trifluoromethyl)-1H-pyrazol-5-yl)methyl)-3-(5-fluoro-6-(2-(methylsulfonyl)ethyl)pyridin-3-yl)urea], for which the Ki came to 29 nM.

Take `CS(=O)(=O)CCc1ncc(NC(=O)NCc2cc(C3CC3)nn2-c2cccc(Cl)c2)cc1F` [Example 24, 1-((1-(3-chlorophenyl)-3-cyclopropyl-1H-pyrazol-5-yl)methyl)-3-(5-fluoro-6-(2-(methylsulfonyl)ethyl)pyridin-3-yl)urea]: the Ki turned out to be 46 nM.

`CC(C)(C)c1cc(CNC(=O)Nc2ccc(C(N)=O)nc2)n(-c2cccc(Cl)c2)n1` [Example 25, 5-(3-((3-tert-butyl-1-(3-chlorophenyl)-1H-pyrazol-5-yl)methyl)ureido)picolinamide]: the Ki turned out to be 31 nM.

Regarding `NC(=O)c1ccc(NC(=O)NCc2cc(C(F)(F)F)nn2-c2cccc(Cl)c2)cn1` [Example 26, 5-(3-((1-(3-chlorophenyl)-3-(trifluoromethyl)-1H-pyrazol-5-yl)methyl)ureido)picolinamide], the inhibition at 5 µM is 44%.

Turning to `CC(C(=O)NCc1cc(C(F)(F)F)nn1-c1cccc(Cl)c1)c1ccc(CNS(C)(=O)=O)nc1` (centres unmarked) [Example 27, N-((1-(3-chlorophenyl)-3-(trifluoromethyl)-1H-pyrazol-5-yl)methyl)-2-(6-(methylsulfonamidomethyl)pyridin-3-yl)propanamide], the Ki was determined as 61 nM.
